Values of other authors, collected in PMC10208580 (Science Advances, 2023).

Tested on: RyRs
Details: higher concentrations of ryanodine; cited from earlier work
Description: Subconducting states have also been observed in the presence of low concentrations of ryanodine. At higher concentrations, however, addition of ryanodine results in full block ([25]). […] A previous cryo-EM study has resolved density for ryanodine in the pore-forming region, inside the inner vestibule below Gln^4933 ([15]). As this site is >13 Å away from IpCa, ryanodine and IpCa can bind to RyRs simultaneously (fig. S12). Whereas IpCa causes ...

**Q.** With ryanodine as the substance, how does the “Effect on channel conductance at higher concentrations” value read?
**A.** full block
